In publication PMC7802073, “Small Molecule Inhibitors of the Bacterioferritin (BfrB)–Ferredoxin (Bfd) Complex Kill Biofilm-Embedded Pseudomonas aeruginosa Cells” (ACS Infectious Diseases, 2020):
Converted amounts (≈) assume the structure as drawn.

Tests used:
P. aeruginosa PAO1 [1] = experiment: microbe, parasite or virus in culture; assay type: cell-based, Pseudomonas aeruginosa; settings: for secreted pyoverdine relative to untreated control, fluorescence at 460 nm normalized to CFU/mL: KM-5-25 70 μM or KM-5-66 50 μM, 27 h, M63 media; for viability at 50 µM: Pseudomonas aeruginosa, PAO1, 27 h, read-out: viable cells relative to the untreated control
Procedure: Cultures of P. aeruginosa PAO1 treated with KM-5-25 (70 μM) or KM-5-66 (50 μM) were grown for 27 h prior to diluting the contents of each well in PBS (pH 7.4) and plating the cells on PIA plates for enumeration of CFU/mL. The 500-fold diluted solution was clarified by centrifugation and the pyoverdine in the cell-free supernatant was analyzed by acquiring fluorescence emission spectra (430–550 nm) with excitation at 400 nm (10 nm slit width) and emission at λmax = 460 nm (10 nm slit width) using a PerkinElmer LS50B spectrophotometer.
Figure S5. P. aeruginosa cells treated with 4-aminoisoindoline-1,3-dione derivatives overproduce pyoverdine. (A) P. aeruginosa cultures treated with KM-5-25 (70 µM) or KM-5-66 (50 µM) for 27 h have ~35% of the viable cells in the untreated control. (B) Fluorescence spectra from cell -free supernatant corresponding to untreated cultures ( solid line), treated with KM-5-25 (dashed line), or treated with KM-5-66 (dotted line). (C) Fluorescence intensity normalized to the number of viable […]
pyoverdine than cells in the untreated control. Averages and standard deviations for 3 biological replicates are shown. p < 0.01 denoted by ** and p < 0.001 by *** relative to untreated.
(1 picture or pasted object on this page, not shown here)

BfrB = BfrB (Pseudomonas aeruginosa, UniProt Q9HY79); experiment: Dissociation constant (Kd) for BfrB by fluorescence polarization; assay type: binding
Sequence of BfrB (Q9HY79 whole entry): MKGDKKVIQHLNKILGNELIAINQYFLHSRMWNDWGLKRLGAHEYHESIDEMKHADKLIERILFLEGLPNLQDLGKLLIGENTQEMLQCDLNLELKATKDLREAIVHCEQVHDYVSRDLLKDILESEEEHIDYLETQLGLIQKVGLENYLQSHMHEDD
Procedure: Dissociation constants for the interaction between BfrB and 3-aminoisoindoline-1,3-dione derivatives (Table 1, Figure S1) were measured in vitro with a fluorescence polarization method based on the intrinsic fluorescence of the isoindoline-1,3-dione moiety, as described previously.[25]
25 (A) and KM-5-66 (B) for BfrB, evaluated by fluorescence polarization, as described previously1.
Values were obtained in 100 mM potassium phosphate buffer (pH 7.6) containing 1 mM TCEP and
0.5% DMSO. The initial concentrations of KM-5-25 and KM-5-66 were 5 µM. The Kd values are the
average and standard deviation from three independent measurements. […]

Aqueous solubility = assay type: physicochemical; settings: aqueous media; read-out: soluble in aqueous media to
P. aeruginosa PAO1 [2] = experiment: Half maximal inhibitory concentration (IC50) on planktonic growth, CFU/mL enumeration; assay type: cell-based, Pseudomonas aeruginosa; settings: Pseudomonas aeruginosa, PAO1, defined media, 24 h, 35 °C, 2% DMSO, this work, read-out: IC50
Procedure: Chemicals were purchased from Fisher Scientific unless otherwise stated. P. aeruginosa PAO1 was obtained from the University of Washington Genome center.[81] The PAO1 strain expressing enhanced yellow fluorescent protein (EYFP) was prepared previously.[26] Clinical isolates of P. aeruginosa were purchased from JMI Laboratories (North Liberty, IA, USA). […] Starter cultures were grown from a single colony at 37 °C and shaking at 220 rpm for 14 h in 5 mL PI media supplemented with 10 μM Fe. Pellicle biofilms were cultured for 48 h at 30 °C in PI media supplemented with 20 μM Fe. Surface-attached biofilms were cultured in AB minimal media[82] supplemented with trace metals [0.15 μM (NH4)2MoO4, 3 μM CuSO4, 2 μM Co(NO3)2, 9.4 μM Na2B4O7, and 7.6 μM ZnSO4], 3 mM glucose and 15 μM Fe. Iron supplementation was carried out by addition of a small volume of filter-sterilized 10 mM (NH4)2Fe(SO4)2 (pH ∼ 2.0) solution. […]; IC50 values (Table 1, Figure S1) were determined as reported previously[25] with small modifications. In brief: precultures of P. aeruginosa PAO1 (5 mL) were grown in LB media for 13 h at 37 °C and 220 rpm in 50 mL conical tubes (VWR International, PA). The cells were centrifuged for 5 min at 4000 rpm and 4 °C, washed two times and then diluted in buffer (100 mM KH2PO4 and 15 mM (NH4)2SO4) to an optical density at 600 nm (OD600) of 0.1. A small volume of compound stock solution (10 mM) was transferred to a microcentrifuge tube, initially diluted with DMSO to 20 μL, and then diluted to 1 mL with preculture cell suspension in defined media with OD600 = 0.0001, so the final DMSO concentration is 2%. The resultant cell suspension (200 μL) was transferred to a clear-bottom polystyrene 96-well plate (VWR) covered with a lid and incubated at 35 °C and 205 cpm for 24 h in a Synergy H1 microplate reader (Biotek Instruments Inc., Vermont). The cell cultures were serially diluted and then plated on PI Agar (PIA; BD biosciences) plates for enumeration of viable cells (CFU/mL). The % growth was calculated from the ratio CFU/mL(treated)/CFU/mL(untreated control). To calculate the IC50 values, the % growth was plotted as a function of compound concentration, expressed as log[compound] (μM), and fitted to the 4-parameter logistic model describing the sigmoid-shaped response pattern (eq 1),[84] where b is the slope factor, max is the upper asymptote (plateau), and min is the lower asymptote. Values are the average and standard deviation from three independent experiments. [drawing 1] 1

Structure (SMILES)	secreted pyoverdine relative to untreated control, fluorescence at 460 nm normalized to CFU/mL (P. aeruginosa PAO1 [1])	viability at 50 µM (P. aeruginosa PAO1 [1])	Kd (BfrB)	solubility (Aqueous solubility)	IC50 (P. aeruginosa PAO1 [2])
O=C1NC(=O)c2c(NCc3cc(Cl)ccc3O)cccc21 [KM-5-25, 4-((5-Chloro-2-hydroxybenzyl)amino)isoindoline-1,3-dione]	~5 fold	~35%	4 ± 0.6 µM	~110 µM (≈ 33.3 µg/mL)	69 ± 7 µM
O=C1NC(=O)c2c(NCCCc3cc(O)cc(Cl)c3)cccc21 [KM-5-66, 4-((3-(3-Chloro-5-hydroxyphenyl)propyl)amino)isoindoline-1,3-dione]	~5 fold	~35%	0.35 ± 0.05 µM	~80 µM (≈ 26.5 µg/mL)	42 ± 6 µM
